Results: patent US20230212571A1, “COMPOSITIONS AND METHODS FOR DELIVERING POLYNUCLEOTIDES” (NeOnc Technologies, Inc., priority 2020, published 2023)

How the values were obtained:
[1] = tested on: AVM-BEC; experiment: RT-qPCR mRNA expression in AVM-BEC; format: cell-based, human
From the text: Human surgical specimens were obtained following written informed consent from patients in accordance with Declaration of Helsinki guidelines and the Institutional Review Board (HS-04B053), at Keck School of Medicine, USC. AVM-BECs were isolated from brain tissues of patients who underwent microsurgical AVM resection. Control BECs were isolated from the structurally normal […] of patients who underwent temporal lobectomy for intractable epilepsy. Endothelial cell (EC) isolation and culture were described^5,9. (Stapleton C J, Armstrong D L, Zidovetzki R, Liu C Y, Giannotta S L, Hofman F M. Thrombospondin-1 modulates the angiogenic phenotype of human cerebral arteriovenous malformation endothelial cells. Neurosurgery. 2011; 68(5):1342-1353) (Ferreira R, Santos T, Amar A, et al. Argonaute-2 promotes miR-18a entry in human brain endothelial cells. J Am Heart Assoc. 2014; 3(3):e000968) ECs were only used between passages 3-5. Experiments were performed under shear flow conditions (12 dyn/cm^2) to reproduce arterial flow^6. (Ferreira R, Santos T, Amar A, et al. MicroRNA-18a improves human cerebral arteriovenous malformation endothelial cell function. Stroke. 2014; 45(1):293-297). For hypoxic experiments, cells were cultured in a Galaxy 48R (Eppendorf) incubator at 3% O2. MicroRNAs were co-administered with Ago-2 to increase the cellular uptake of miR-18a^9 (Ferreira R, Santos T, Amar A, et al. Argonaute-2 promotes miR-18a entry in human brain endothelial cells. J Am Heart Assoc. 2014; 3(3):e000968) (FIG. 9). Methods regarding cell treatments and transfections were included in Data.
MiR-18a (hsa-miR-18a-5p, 40 nM, Dharmacon) or a scramble microRNA (40 nM, Dharmacon) in nuclease-free water was added with argonaute 2 (Ago-2, 0.4 nM, Abcam) as the microRNA carrier and stabilizer^9. (Ferreira R, Santos T, Amar A, et al. Argonaute-2 promotes miR-18a entry in human brain endothelial cells. J Am Heart Assoc. 2014; 3(3):e000968). No transfection reagent was used with miR-18a or scramble microRNA treatments. Recombinant human TSP-1 (R&D Systems) stock solution was prepared in PBS and further diluted in culture medium to be used at a final concentration of 1000 ng/mL. Cells were treated during 24 h for mRNA and 48 h for protein expression studies. NEO100 (NeOnc Technologies) stock was prepared in DMSO and used immediately or stored at −20° C.
The extraction and analysis of total mRNA and microRNAs were described^9,13. (Ferreira R, Santos T, Amar A, et al. Argonaute-2 promotes miR-18a entry in human brain endothelial cells. J Am Heart Assoc. 2014; 3(3):e000968) (Marín-Ramos N I, Jhaveri N, Thein T Z, Fayngor R A, Chen T C, Hofman F M. NEO212, a conjugate of temozolomide and perillyl alcohol, blocks the endothelial-to-mesenchymal transition in tumor-associated brain endothelial cells in glioblastoma. Cancer Lett. 2018; 442:170-180). The Human Notch Signaling Pathway RT^2 Profiler PCR Array (Qiagen) was used to analyze the expression of 84 genes related to Notch signaling. For mRNA studies, […] (B2M) was measured for sample normalization. The primer sequences were included in Table 2. For microRNA analysis, RNU44 and U6 snRNA TaqMan microRNA Control Assays were used for normalization of human and mice samples, respectively.

[2] = tested on: Mgp^−/− mouse model of AVM; experiment: Organ histology and complete blood count; format: in vivo; details: Mgp^−/− mice, IN 2-weeks
Procedure: In vivo efficacy studies were performed using 3-week-old Mgp^+/- C57BL/6 mice^16,17 (Yao Y, Jumabay M, Wang A, Boström K I. Matrix Gla protein deficiency causes arteriovenous malformations in mice. J Clin Invest. 2011; 121(8):2993-3004) (Yao Y, Yao […], et al. Reducing Jagged 1 and 2 levels prevents cerebral arteriovenous malformations in matrix Gla protein deficiency. Proc Nat Acad Sci USA. 2013; 110(47):19071-19076). provided by Dr. Yucheng Yao (UCLA, Los Angeles) and mated to obtain the appropriate genotypes. Only about 10-15% of each litter were born with the Mgp^-/- genotype, and among those, only about 45% survived until the end of the treatment and/or the imaging of the brain vasculature, due to the extreme severity of the disease in this mouse model. These animals not only suffer AVMs in the brain, but all major organs are also affected and dysfunctional. Thus, […] might die due to several causes, including stroke, severe lung inflammation that causes respiratory failure-especially when anesthesia is used-, organ failure due to liver and/or spleen malfunction, heart failure, etc., drastically limiting the number of the Mgp^-/- mice available for the CTA studies. […] Treatment with 0.08 nmol/mouse of miR-18a or scramble microRNA was administered IN daily for 2-weeks. 2.5 μL/nostril were delivered in RNase-free water. Ultra-high-resolution in vivo computed tomography angiography (CTA) was performed in mice for 3D imaging of whole brain vascular architecture^18, ([…], Rendon D, et al. Ultra-High-Resolution In vivo Computed Tomography Imaging of Mouse Cerebrovasculature Using a Long Circulating Blood Pool Contrast Agent. Scientific reports. 2015; 5:10178) as described in Data. The vascular data was quantified using ImageJ. Regions of interest encompassing the Circle of Willis (CoW) and the azygous of the anterior cerebral artery (AzACA) and its branches were selected in CT images using thick slab maximum intensity projection (MIP) or 3D volume rendering. The images were converted to 8-bit grayscale and thresholded to highlight the vasculature containing pixels. The pixels were analyzed as particles and normalized to results from the wildtype mice (WT, Mgp^+/+). Immediately after imaging, mice were euthanized, and brains were frozen in Clear Frozen Section Compound (VWR) and stored at -80° C. Blood was collected for complete blood count (Antech). The lungs, livers, spleens, femurs, and kidneys were harvested and fixed in 10% formalin. Photographs of the stained sections were captured using an Eclipse 80i microscope (Nikon).

[3] = tested on: BEC; experiment: Invasion assay, Matrigel-coated Boyden chamber, control BEC; format: cell-based, human; details: P>0.9999
From the text: The chemoinvasion assay was described^14. (Marín-Ramos N I, Thein T Z, Cho H-Y, et al. NEO212 inhibits migration and invasion of glioma stem cells. Mol Cancer Ther. 2018; 17(3):625-637). Pictures were captured using an Eclipse 80i microscope (Nikon), and cells counted with ImageJ Software (NIH).

hsa-miR-18a-5p (UAGGUGCAUCUAGUGCAGAUAG; chemistry not given here; listed as Homo sapiens) [small non-coding RNA molecule involved in post-transcriptional regulation of gene expression; Dharmacon]
BMP4 mRNA expression ([1]; AVM-BEC, 24 h, vs scramble, P=0.0022): normalized
MMP2 mRNA expression ([1]; AVM-BEC, P=0.0004): normalized
MMP9 mRNA expression ([1]; AVM-BEC, P=0.0091): normalized
HIF-1α expression ([1]; AVM-BEC, hypoxia 3% O2): remained unaltered
HIF-1α expression ([1]; AVM-BEC, normoxia): significantly (P=0.0025) decreased
ALK2 mRNA expression ([1]; AVM-BEC, vs scramble, P<0.0001): normalized
MGP mRNA expression ([1]; AVM-BEC, vs scramble, P<0.0001): normalized
ALK1 mRNA expression ([1]; AVM-BEC, vs scramble, P=0.0013): normalized
ALK5 mRNA expression ([1]; AVM-BEC, vs scramble, P=0.0072): normalized
BMP9 mRNA expression ([1]; non-HHT related AVM-BEC, P>0.05): No significant differences
bone marrow phenotype (adipose cells, megakaryocytes) [2]: normalized
macrophages in alveoli, lung inflammation [2]: not present
polychromasia [2]: minimal or not present
spleens, macroscopic, compared with Mgp^+/+ and Mgp^−/+ [2]: comparable
blood levels of hematocrit (HCT) ([2]; n=3): normalized
blood levels of hemoglobin (HGB) ([2]; n=3): normalized
blood levels of red blood cells (RBC) ([2]; n=3): normalized
invasiveness [3]: without affecting control BEC
